The subject of data set [1] is P. falciparum 3D7^0087/N9. The experiment in a line: PfalcHuMouse model: therapeutic efficacy (parasite clearance, day of recrudescence, cure) in P. falciparum-infected humanized NSG mice. To be noted: for day after which no recrudescence occurred (DoR): oral monotherapy, historical data, different dose levels and schedules, drugs with curative exposures in the data set; for exposure leading to 95% probability of cure: logistic regression of historical data. It counts as in vivo, Plasmodium falciparum. From the text:
To implement the PfalcHuMouse model for analysis of combinations, we first defined the variables of therapeutic response and their interpretation in the context of this analysis. These variables were parasite clearance (PC), parasite recrudescence (PR), and cure (Fig. 2a). […] In our studies, we estimated PC by measuring the ratio of parasitemia in blood at 48-h intervals (pDn/pDn+2, where pD stands for parasitemia and n indicates the day of the assay), which was a simplified alternative of the classical approach and is frequently used in clinical studies. Conversely, PR depends on the number of viable parasites remaining in the body that could proliferate after noneffective treatment and is not systematically used to measure parasite killing in vivo. To test PR validity, we hypothesized that the time point for recrudescent parasitemia to reach the value at the onset of drug treatment (i.e., day of recrudescence [DoR]) correlated with the number of parasites that survived antimalarial treatment ([35]). […] It is important to note that both DoRs, days 0 and 60, represented not quantifiable magnitudes but labels of specific conditions (i.e., therapeutic failure and cure, respectively).
Experimental infections were carried out as previously described ([12]), with minor modifications. Briefly, NSG mice were engrafted with hE by intraperitoneal daily injections of 1-mL hE suspensions until a minimum of 40% chimerism in peripheral blood was achieved (typically10 days of injections). The hE-engrafted mice (HuMice) were infected with 0.3 mL of a suspension of pooled blood collected by aseptic cardiac puncture from CO2-euthanized donor HuMice harboring a parasitemia of 5 to 10% P. falciparum 3D7^0087/N9.
(§1) Before drug administration, each infected mouse was randomly assigned to its corresponding treatment. […] The treatments were administered by oral gavage with 20-gauge straight reusable feeding needles (Fine Science Tools GmbH, Heidelberg, Germany). The volume of administration for the per os (p.o.) route was 10 mL/kg of body weight unless otherwise stated.
The quantification of parasitemia at different time points after the infection was performed by flow cytometry as previously described ([46]). Briefly, 2 μL of blood was taken from the lateral tail vein of HuMice and stained with SYTO-16 (Fisher Scientific), a membrane-permeable nonselective fluorescent nucleic acid dye to detect intraerythrocytic parasites, and TER119-phycoerythrin monoclonal antibody (Miltenyi Biotec, Bergisch Gladbach, Germany) as a marker of murine erythrocytes, exactly as described. The samples were acquired and analyzed in a Attune NxT acoustic focusing flow cytometer (Thermo Fisher Scientific, Waltham, MA). The limit of quantification was set to 0.01%, where a minimum of 100 infected events was considered the minimal statistically significant sample (~10^6 total erythrocytes counted for detection). Parasitemia was expressed as the percentage of parasitized erythrocytes with respect to the total erythrocytes in circulation and/or as the absolute concentration of circulating parasitized erythrocytes. For qualitative assessment of blood samples from infected mice, blood smears stained with 10% (vol/vol) Giemsa in saline buffer (0.015 M NaCl, 0.001 M phosphate buffer [pH 7.0]) were prepared and analyzed as described previously ([56]) in a Zeiss Primo Star 4 microscope (Thermo Fisher Scientific) at a magnification of ×100.
The treated mice that reached the limit of detection by standard flow cytometry (<0.01% from total circulating erythrocytes) after pharmacological treatment were maintained until day 60 of study.

The nature of data set [2]: Concentration of drugs in whole blood of P. falciparum 3D7^0087/N9-infected HuMice after oral dosing (LC-MS/MS, PK analysis). To be noted: for AUC0toTlast / AUC(0-t) / Cmax / Tmax: mouse, in vivo; for AUC(0-t): AUC0toTlast. It counts as in vivo, mice. The procedure:
as §1
The concentrations of drugs were measured in whole blood of P. falciparum 3D7^0087/N9-infected HuMice since the amount of plasma that could be obtained from each mouse was very low. Samples of peripheral blood (25 μL) were taken at different time points after dosing, mixed with 25 μL of 10.9 mM potassium oxalate and 59.5 mM sodium fluoride in Milli-Q water, and immediately frozen on a thermal block at −80°C. The frozen samples were stored at −80°C until analysis. Blood from P. falciparum 3D7^0087/N9-infected HuMice harboring a parasitemia of ~1.4% was used for preparation of standard curves, calibration, and quality control samples. The drugs were extracted from 10 μL of lysates, obtained by protein precipitation of blood samples, by using standard liquid-liquid extraction methods. The samples were analyzed by liquid chromatography-tandem mass spectrometry (LC-MS/MS) for quantification in Waters Micromass ultrahigh-performance triple quadrupole (UPLC-TQD) (Waters, Manchester, UK) mass spectrometers.
Multivariate linear regression, logistic regression, and descriptive statistics were carried out using GraphPad Prism 9.0 (GraphPad Software, San Diego, CA). The comparison of regression models was executed using the Akaike information criterion ([57]). Probability values of <0.05 were considered significant. Phoenix WinNonlin 8.2 (Certara, St. Louis, MO) was used for PK standard analysis.

Data set [3] can be described thus: Blood partitioning: distribution of drugs in plasma, erythrocytes and infected erythrocytes of the PfalcHuMouse. The format is in vivo, mice. To be noted: for fraction associated with circulating erythrocytes / fraction found in plasma: mouse, in vivo. From the text: Given their physicochemical properties, both ferroquine and piperaquine might accumulate in infected erythrocytes ([41]), so we mined data on the distribution of these drugs in plasma, erythrocytes, and infected erythrocytes of the PfalcHuMouse from previous blood partitioning studies in unrelated drug discovery programs. Approximately 97.5% of both ferroquine and piperaquine was associated with circulating erythrocytes, while only 2.5% was found in plasma. For piperaquine, the accumulation was even higher in erythrocytes of infected individuals (>99%). Moreover, as previously reported ([13]), there was no sequestration of P. falciparum in vascular endothelium of the PfalcHuMouse. Therefore, the contribution of drug accumulated in mature parasites circulating in blood might be relevant, especially in proliferating parasites exposed to noninhibitory concentrations. Consequently, we corrected this effect on drug exposure in blood by dividing the total drug exposure levels in blood by the number of infected erythrocytes in circulation for each animal in the study.

Where [4] appears, read: ferroquine plus artefenomel model, intercept 17.2, n = 50, Tjur's R^2 = 0.31.
[5] abbreviates: artefenomel plus piperaquine model, intercept 102.8, n = 40, Tjur's R^2 = 0.91.

As to `CCCCN(CCCC)CC(O)c1cc(Cl)cc2c1-c1ccc(Cl)cc1/C2=C/c1ccc(Cl)cc1` (stereo not shown) [lumefantrine], the “day after which no recrudescence occurred (DoR)” value in data set [1] was ≤ 35 days.

On to `CNC[c-]1cccc1CNc1ccnc2cc(Cl)ccc12.[Fe+2].c1cc[cH-]c1` (stereo not shown) [SSR97213], for which, in data set [2] (average, main metabolite of ferroquine), the “share of the total exposure of ferroquine plus SSR97213” value stood at 40%.

Take ferroquine: in data set [3], the “fraction associated with circulating erythrocytes” value was “Approximately 97.5%” and the “fraction found in plasma” value was 2.5%. In addition, the AUC0toTlast in data set [2] (20 mg/kg) is 4708 ng·h/mL. Also, the “coefficient of log10AUC in logistic model of cure log(p/1−p)” value (“coefficient … of cure log(p/1−p)” for short) in data set [1] (setting [4]) was 5.4. Also, in data set [1] (monotherapy), the “exposure leading to 95% probability of cure” value is recorded as 0.58 × 10^−3 nmol/10^6 infected erythrocytes (iE).

`c1cc([C@H]2CC[C@]3(CC2)OO[C@]2(O3)C3CC4CC(C3)CC2C4)ccc1OCCN1CCOCC1` [artefenomel]: in data set [2] (po, 100 mg/kg), the AUC(0-t) is 40900 ng·h/mL, the maximum concentration (Cmax) stood at 2200 ng/mL and the Tmax came to 2 h. In addition, the “coefficient … of cure log(p/1−p)” value in data set [1] (setting [5]) turned out to be 16.2. For the same compound, in data set [1] (setting [4]), the “coefficient … of cure log(p/1−p)” value turned out to be 1.6. Further, in data set [1] (graphic analysis of cure, assuming potency of artefenomel in the same order of magnitude as piperaquine), the “pattern of interaction with piperaquine on parasite killing in vivo” value is reported as “synergistic”. The “mechanistic pattern of interaction with ferroquine” value in data set [1] (graphic analysis of cure, conditioned by large difference in intrinsic potency) was “additivity”. For the same compound, the “exposure up to which no cures were available in monotherapy” value in data set [1] (monotherapy, schedules of treatment used in the experimental studies) was “up to 4.7 × 10^−3 nmol/10^6 iE”.

In the case of `COc1ccc2nc3cc(Cl)ccc3c(Nc3cc(CN4CCCC4)c(O)c(CN4CCCC4)c3)c2n1` [pyronaridine], the “day after which no recrudescence occurred (DoR)” value in data set [1] is ≤ 35 days.

Regarding `Clc1ccc2c(N3CCN(CCCN4CCN(c5ccnc6cc(Cl)ccc56)CC4)CC3)ccnc2c1` [piperaquine], the “accumulation in erythrocytes of infected individuals” value in data set [3] (PfalcHuMouse, infected individuals) is reported as > 99%. In addition, in data set [3], the “fraction associated with circulating erythrocytes” value was “Approximately 97.5%” and the “fraction found in plasma” value came out at 2.5%. In data set [2] (po, 5 mg/kg), the AUC(0-t) came out at 25300 ng·h/mL and the highest level (Cmax) was 598 ng/mL. In data set [2] (po, 10 mg/kg), this compound yielded an AUC(0-t) of 21800 ng·h/mL and a peak concentration (Cmax) of 346 ng/mL. Further, in data set [2] (po, 25 mg/kg), the exposure AUC(0-t) was found to be 41900 ng·h/mL, the concentration peaked (Cmax) at 414 ng/mL and the time of peak concentration (Tmax) was determined as 77 h. In data set [2] (po, 40 mg/kg), this compound returned an AUC0toTlast of 38866 ng·h/mL, an area under the curve AUC(0-t) of 70000 ng·h/mL and a maximum concentration (Cmax) of 1120 ng/mL. In data set [2] (po, 75 mg/kg), the area under the curve AUC(0-t) came out at 355000 ng·h/mL, the Cmax is 2550 ng/mL and the Tmax is 109 h. For the same compound, the “coefficient … of cure log(p/1−p)” value in data set [1] (setting [5]) is listed as 24.2. In addition, the “exposure leading to 95% probability of cure” value in data set [1] (monotherapy) is 3.47 × 10^−3 nmol/10^6 infected erythrocytes (iE).

For orientation: AUC(0-t) means exposure summed from dosing to a finite time, without extrapolation to infinity. A low value points to less exposure. The term Cmax denotes the highest concentration seen after dosing. In general, Tmax refers to the time from dosing to the highest level.
